The results in this text go back to BindingDB's records for doi:10.1016/s0014-2999(99)00610-x (Hungarian Academy of Sciences, 1999).

Several values for one entry are separate records, joined by “and”; a condition that tells them apart may be missing. Identical values can stand only once. Where a SMILES comes first, the peptide text is derived from it. [ ]: non-standard residue; d: D form. Tic = O=C(O)[C@@H]1Cc2ccccc2CN1

Test [1] has as its target Mu-type opioid receptor (Cavia porcellus, UniProt P97266).
In test [2] the target is Mu-type opioid receptor (Rattus norvegicus, UniProt P33535).
Sequence of Mu-type opioid receptor (Rattus norvegicus, UniProt P33535) (P33535 whole entry): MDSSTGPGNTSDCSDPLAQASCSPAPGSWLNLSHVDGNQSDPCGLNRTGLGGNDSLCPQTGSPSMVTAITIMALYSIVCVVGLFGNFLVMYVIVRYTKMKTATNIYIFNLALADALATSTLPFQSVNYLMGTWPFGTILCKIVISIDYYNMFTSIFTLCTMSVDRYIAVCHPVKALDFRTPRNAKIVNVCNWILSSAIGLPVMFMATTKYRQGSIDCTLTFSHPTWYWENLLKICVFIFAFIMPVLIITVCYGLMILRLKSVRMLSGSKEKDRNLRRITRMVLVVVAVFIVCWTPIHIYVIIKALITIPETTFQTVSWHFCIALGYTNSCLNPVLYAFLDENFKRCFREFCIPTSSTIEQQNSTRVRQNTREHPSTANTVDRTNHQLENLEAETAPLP
Test [3] deals with Kappa-type opioid receptor (Rattus norvegicus, UniProt P34975).
Sequence of Kappa-type opioid receptor (Rattus norvegicus, UniProt P34975) (P34975 whole entry): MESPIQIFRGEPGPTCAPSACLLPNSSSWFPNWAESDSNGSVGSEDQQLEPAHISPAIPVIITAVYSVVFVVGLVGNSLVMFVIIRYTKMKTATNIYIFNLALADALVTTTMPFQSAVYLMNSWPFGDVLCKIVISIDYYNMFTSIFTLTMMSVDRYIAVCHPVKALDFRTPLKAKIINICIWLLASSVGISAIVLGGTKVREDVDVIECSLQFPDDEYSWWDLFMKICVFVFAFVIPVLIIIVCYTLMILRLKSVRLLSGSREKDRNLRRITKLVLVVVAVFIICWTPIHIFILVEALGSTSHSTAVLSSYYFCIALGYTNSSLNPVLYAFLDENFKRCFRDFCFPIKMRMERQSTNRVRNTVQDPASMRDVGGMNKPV
Test [4] has as its target Kappa-type opioid receptor (Cavia porcellus, UniProt P41144).
In test [5] the target is Delta-type opioid receptor (Sus scrofa, UniProt P79291).
Sequence of Delta-type opioid receptor (Sus scrofa, UniProt P79291) (P79291 whole entry): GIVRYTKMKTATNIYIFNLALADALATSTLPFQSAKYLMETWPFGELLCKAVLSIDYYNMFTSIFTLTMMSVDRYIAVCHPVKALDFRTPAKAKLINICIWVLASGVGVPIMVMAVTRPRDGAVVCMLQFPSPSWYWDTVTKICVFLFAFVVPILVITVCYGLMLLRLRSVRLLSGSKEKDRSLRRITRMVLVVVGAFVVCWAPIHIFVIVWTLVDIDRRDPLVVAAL
Test [6] deals with Delta-type opioid receptor (Rattus norvegicus, UniProt P33533).
Sequence of Delta-type opioid receptor (Rattus norvegicus, UniProt P33533) (P33533 whole entry): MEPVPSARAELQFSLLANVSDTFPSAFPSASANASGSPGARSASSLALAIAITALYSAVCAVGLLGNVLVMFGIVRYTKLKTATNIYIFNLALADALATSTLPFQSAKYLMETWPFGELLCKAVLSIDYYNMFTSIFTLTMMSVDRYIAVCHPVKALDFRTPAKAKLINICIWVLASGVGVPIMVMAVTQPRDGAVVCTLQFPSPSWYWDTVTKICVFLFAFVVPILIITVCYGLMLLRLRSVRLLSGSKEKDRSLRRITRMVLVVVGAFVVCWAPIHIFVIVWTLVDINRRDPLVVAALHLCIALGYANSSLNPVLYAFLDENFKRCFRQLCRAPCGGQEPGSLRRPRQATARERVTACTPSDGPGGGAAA

Sequence of Mu-type opioid receptor (Cavia porcellus, UniProt P97266) (P97266 whole entry): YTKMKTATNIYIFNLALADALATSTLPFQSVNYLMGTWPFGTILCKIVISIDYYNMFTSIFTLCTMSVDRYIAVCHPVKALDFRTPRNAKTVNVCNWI
Sequence of Kappa-type opioid receptor (Cavia porcellus, UniProt P41144) (P41144 whole entry): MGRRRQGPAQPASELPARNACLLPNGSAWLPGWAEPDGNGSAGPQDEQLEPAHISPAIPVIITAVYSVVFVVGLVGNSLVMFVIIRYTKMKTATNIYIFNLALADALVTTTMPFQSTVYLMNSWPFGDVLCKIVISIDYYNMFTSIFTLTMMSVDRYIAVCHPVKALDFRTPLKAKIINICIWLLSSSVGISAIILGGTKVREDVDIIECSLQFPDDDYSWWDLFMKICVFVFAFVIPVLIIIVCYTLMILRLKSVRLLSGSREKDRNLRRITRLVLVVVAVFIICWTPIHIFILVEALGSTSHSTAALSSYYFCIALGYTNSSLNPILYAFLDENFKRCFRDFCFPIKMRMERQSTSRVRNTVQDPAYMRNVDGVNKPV

In general, Ki refers to the dissociation constant of the complex between target and ligand, obtained from inhibition or displacement. A lower Ki goes with higher affinity. For the molecule `COc1cccc2c1[C@]13CCN(CC4CC4)C(C2)[C@]1(OC)CCC(=O)C3`, the Ki at Mu-type opioid receptor [1] was 0.0266 µM; at Mu-type opioid receptor [2], 0.0081 µM and 0.0054 µM; in test [3] it was 2.19 µM. As to `C[C@@H](O)[C@H](NC(=O)[C@H]1NC(=O)[C@H]([C@@H](C)O)NC(=O)[C@H](CCCN=C(N)N)NC(=O)[C@@H](Cc2c[nH]c3ccccc23)NC(=O)[C@H](Cc2ccc(O)cc2)NC(=O)[C@@H](NC(=O)[C@H](N)Cc2ccccc2)CSSC1(C)C)C(N)=O`, the figures for the inhibition constant Ki at Mu-type opioid receptor [1] and on Mu-type opioid receptor [2] were 0.0481 µM and 0.0438 µM, respectively. `Oc1ccc2c3c1OC1c4[nH]c5c(c4CC4(O)CN(CCC314)C(C1CC1)C2)CC1(O)CN2CCC13c1c(ccc(O)c1OC53)CC2C1CC1` (stereo not given) [CAS_105618-26-6]: the Ki in test [4] was found to be 0.77 µM; in test [3] it was 0.172 µM. On Mu-type opioid receptor [1], `CN1CC[C@]23c4c5ccc(O)c4O[C@H]2[C@@H](O)CCC3[C@H]1C5` (stereo not given in full) [DIHYDROMORPHINE] yielded an inhibition constant Ki of 0.006 µM. This counts as single-digit nanomolar.

Take `CC(C)C[C@H](NC(=O)[C@H](Cc1ccccc1)NC(=O)CNC(=O)[C@@H](CO)NC(=O)[C@@H](N)Cc1ccc(O)cc1)C(=O)N[C@H](C(=O)O)[C@@H](C)O` [DSLET-OH]: the figures for the Ki in test [5] and in test [6] were 0.0063 µM and 0.0098 µM, respectively. As for `N[C@@H](Cc1ccc(O)cc1)C(=O)N1Cc2ccccc2C[C@H]1C(=O)N[C@@H](Cc1ccccc1)C(=O)N[C@@H](Cc1ccccc1)C(=O)O` [TIPP] (H-Y[Tic]FF-OH), the figures for the inhibition constant (Ki) in test [5] and in test [6] were 7.06 µM and 2.83 µM, respectively.

As for `CC(C)[C@H](NC(=O)[C@H](CCC(=O)O)NC(=O)[C@H](Cc1ccccc1)NC(=O)[C@@H](C)NC(=O)[C@@H](N)Cc1ccc(O)cc1)C(=O)N[C@H](C(=O)NCC(N)=O)C(C)C` [Tyr-D-Ala-Phe-Glu-Val-Val-GlyNH2], the figures for the Ki in test [5] and in test [6] were 2.88 µM and 1.19 µM, respectively. On Mu-type opioid receptor [1], `C[C@@H](NC(=O)[C@@H](N)Cc1ccc(O)cc1)C(=O)NCC(=O)N(C)[C@@H](Cc1ccccc1)C(=O)NCCO` [[tyrosyl-3,5-3H(N)]-D-Ala2-Mephe4-glyol5-enkephalin] yielded a Ki of 0.0026 µM.
